The values that follow come from US20230295152A1 (SENDA BIOSCIENCES, INC., priority 2019, published 2023).

The nature of series [1]: Hepatocyte Stability Assay, rat. Further: tested at 1 µM. It is filed as in vitro ADME. The following applies: rat hepatocytes. Here is the method: (§1) • Preparation of working solutions: 10 mM stock solutions of test compound and positive control were prepared in DMSO. In separate conical tubes, the 10 mM solution of test compound and the positive control were diluted to 100 μM by combining 198 μL of 50% acetonitrile/50% water and 2 μL of 10 mM stock.
(§2) Preparation of Hepatocytes: Incubation medium (William's E Medium supplemented with GlutaMAX) and hepatocyte thawing medium were placed in a 37° C. water bath and allowed warming for at least 15 minutes prior to use. A vial of cryopreserved hepatocytes was transferred from storage, ensuring that vials remained at cryogenic temperatures until thawing process ensued. Cells were thawed by placing the vial in a 37° C. water bath and gently shaking the vials for 2 minutes. After thawing was completed, vial was sprayed with 70% ethanol and transferred to a biosafety cabinet. Wide-bore pipette tip were used to transfer hepatocytes into 50 mL conical tube containing thawing medium. The 50 mL conical tube were placed into a centrifuge and spun at 100 g for 10 minutes. Upon completion of spin, thawing medium was aspirated and resuspended hepatocytes in enough incubation medium to yield ˜1.5×10^6 cells/mL. Using an AO/PI Staining, cells were counted and the viable cell density was determined. Cells with poor viability (<75% viability) were determined to be not acceptable for use. Cells were diluted with incubation medium to a working cell density of 0.5×10^6 viable cells/mL.
(§3) Procedure for Stability Determination: 198 μL of hepatocytes were pipetted into each wells of a 96-well non-coated plate. The plate was placed in the incubator to allow the hepatocytes to warm for 10 minutes. 2 μL of the 100 μM test compound or positive control solutions were pipetted into respective wells of the 96-well non-coated plate to start the reaction. The plate was returned to the incubator for the designed time points. Well contents was transferred in 25 μL aliquots at time points of 0, 15, 30, 60, 90 and 120 minutes. The aliquots were then mixed with 6 volumes (150 μL) of acetonitrile containing internal standard, IS (100 nM alprazolam, 200 nM caffeine and 100 nM tolbutamide) to terminate the reaction. The mixture was vortex for 5 minutes. Samples were centrifuged for 45 minutes at 3,220 g. An aliquot of 100 μL of the supernatant was diluted by 100 μL ultra-pure water, and the mixture was used for LC/MS/MS analysis. All incubations were performed in duplicate.
(§4) Data Analysis: All calculations were carried out using Microsoft Excel. Peak areas were determined from extracted ion chromatograms. In vitro half-life (t1/2) of parent compound was determined by regression analysis of the percent parent disappearance vs. time curve.
(§5) The in vitro half-life (in vitro t1/2) was determined from the slope value:
(§6) Conversion of the in vitro t1/2 (in min) into the in vitro intrinsic clearance (in vitro CLint, in μL/min/1×10^6 cells) was done using the following equation (mean of duplicate determinations):
(§7) V=incubation volume(0.2 mL);
(§8) N=number of hepatocytes per well(0.1×10^6 cells).
(§9) “+++” indicates a CLint value less than 20 mL/min/Kg, “++” indicates a CLint between 20 and 50 mL/min/Kg, and “+” indicates an CLint above 50 mL/min/Kg.

Series [2] in a line: Hepatocyte Stability Assay, human. It counts as in vitro ADME. The conditions noted are these: cryopreserved hepatocytes in suspension; human hepatocytes; read-out: Human hepatocyte clearance. Here is the method: as §1, §2, §3, §4, §5, §6, §7, §8, §9

Where only a bound is given, the exact number is not on record here.

With `O=c1c2cc(-c3ccc(Cl)cc3)nc(-c3cccnc3)c2ncn1C[C@@H](O)C(F)(F)F` (single isomer, unassigned) [185 enantiomer 1], the Rat hepatocyte clearance entry in series [1] was “++ (“++” indicates a CLint between 20 and 50 mL/min/Kg)”. Further, in series [2], the CLint scaled at 1 μM is below 20 mL/min/kg.
For the molecule `O=c1c2cc(-c3ccc(Cl)cc3)nc(-c3cccnc3)c2ncn1C[C@H](O)C(F)(F)F` (single isomer, unassigned) [185 enantiomer 2], the Rat hepatocyte clearance entry in series [1] was “++ (“++” indicates a CLint between 20 and 50 mL/min/Kg)”. In addition, the CLint scaled at 1 μM in series [2] was below 20 mL/min/kg.
With `C[C@@H](CO)n1cnc2c(-c3cncc(F)c3)nc(-c3ccc(OC(F)(F)F)cc3)cc2c1=O` [Compound 1, (S)-8-(5-fluoropyridin-3-yl)-3-(1-hydroxypropan-2-yl)-6-(4-(trifluoromethoxy)phenyl)pyrido[3,4-d]pyrimidin-4(3H)-one], the Rat hepatocyte clearance entry in series [1] is “++ (“++” indicates a CLint between 20 and 50 mL/min/Kg)”. Also, the CLint scaled at 1 μM in series [2] was below 20 mL/min/kg.
As to `C[C@@H](CO)n1cnc2c(-c3cccc(F)c3)nc(-c3ccc(C(F)(F)F)nc3)cc2c1=O` [Compound 8], the Rat hepatocyte clearance result in series [1] was “++ (“++” indicates a CLint between 20 and 50 mL/min/Kg)”. In addition, the CLint scaled at 1 μM in series [2] is below 20 mL/min/kg.
With `Cc1ccc(-c2cc3c(=O)n([C@@H](C)CO)cnc3c(-c3cccnc3)n2)cc1` [Compound 17, (S)-3-(1-hydroxypropan-2-yl)-8-(pyridin-3-yl)-6-(p-tolyl)pyrido[3,4-d]pyrimidin-4(3H)-one], in series [1], the Rat hepatocyte clearance result is listed as “+ (“+” indicates an CLint above 50 mL/min/Kg)”. The CLint scaled at 1 μM in series [2] is 20 to 50 mL/min/kg.
The like results for `Cn1cc(-c2nc(-c3ccc(Cl)cc3)cc3c(=O)n(CC(C)(C)O)cnc23)cn1` [Compound 21] were, in that order, “+++ (“+++” indicates a CLint value less than 20 mL/min/Kg)” and below 20 mL/min/kg.
As to `C[C@@H](CO)n1cnc2c(-c3cccnc3)nc(-c3ccc(OC(F)(F)F)cc3)cc2c1=O` [Compound 22], the Rat hepatocyte clearance result in series [1] was “++ (“++” indicates a CLint between 20 and 50 mL/min/Kg)”. Moreover, the CLint scaled at 1 μM in series [2] is below 20 mL/min/kg.
Regarding `C[C@@H](n1cnc2c(-c3cnn(C)c3)nc(-c3ccc(Cl)cc3)cc2c1=O)C(C)(C)O` [Compound 31], the Rat hepatocyte clearance result in series [1] is “++ (“++” indicates a CLint between 20 and 50 mL/min/Kg)”. Moreover, in series [2], the CLint scaled at 1 μM was below 20 mL/min/kg.
Regarding `C[C@@H](n1cnc2c(-c3cccnc3)nc(-c3ccc(Cl)cc3)cc2c1=O)C(C)(C)O` [Compound 33], the Rat hepatocyte clearance entry in series [1] was “++ (“++” indicates a CLint between 20 and 50 mL/min/Kg)”. Besides, the CLint scaled at 1 μM in series [2] was below 20 mL/min/kg.
Consider `C[C@@H](CO)n1cnc2c(-n3ccnc3)nc(-c3ccc(OC(F)(F)F)cc3)cc2c1=O` [Compound 44, (S)-3-(1-hydroxypropan-2-yl)-8-(1H-imidazol-1-yl)-6-(4-(trifluoromethoxy)-phenyl)pyrido[3,4-d]pyrimidin-4(3H)-one], for which the Rat hepatocyte clearance result in series [1] is recorded as “+++ (“+++” indicates a CLint value less than 20 mL/min/Kg)”. The CLint scaled at 1 μM in series [2] was below 20 mL/min/kg.
On to `Cn1cc(-c2nc(-c3ccc(C4CC4)nc3)cc3c(=O)n(C[C@H](O)C(F)(F)F)cnc23)cn1` [Compound 136, (S)-6-(6-cyclopropylpyridin-3-yl)-8-(1-methyl-1H-pyrazol-4-yl)-3-(3,3,3-trifluoro-2-hydroxypropyl)pyrido[3,4-d]pyrimidin-4(3H)-one], for which, in series [2], the CLint scaled at 1 μM is below 20 mL/min/kg.
Still for that read-out and setting: with `O=c1c2cc(-c3ccc(C(F)(F)F)cn3)nc(-c3cccnc3)c2ncn1[C@H]1COC[C@@H]1O` [Compound 139, 3-((3S,4R)-4-hydroxytetrahydrofuran-3-yl)-8-(pyridin-3-yl)-6-(5-(trifluoromethyl)pyridin-2-yl)pyrido[3,4-d]pyrimidin-4(3H)-one] the figure was below 20 mL/min/kg.
The same measure, in the same setting: the value for `O=c1c2cc(-c3ccc(C(F)(F)F)cn3)nc(-c3cccnc3)c2ncn1[C@@H]1COC[C@H]1O` [Compound 140, 3-((3R,4S)-4-hydroxytetrahydrofuran-3-yl)-8-(pyridin-3-yl)-6-(5-(trifluoromethyl)pyridin-2-yl)pyrido[3,4-d]pyrimidin-4(3H)-one] was below 20 mL/min/kg.
As for `C[C@H](O)Cn1cnc2c(-c3cnn(C)c3)nc(-c3ccc(C(F)(F)F)cn3)cc2c1=O` [Compound 142, (S)-3-(2-hydroxypropyl)-8-(1-methyl-1H-pyrazol-4-yl)-6-(5-(trifluoromethyl)pyridin-2-yl)pyrido[3,4-d]pyrimidin-4(3H)-one], the CLint scaled at 1 μM in series [2] was below 20 mL/min/kg.
Regarding `C[C@H](O)Cn1cnc2c(-c3cccnc3)nc(-c3ccc(C(F)(F)F)cn3)cc2c1=O` [Compound 143, (S)-3-(2-hydroxypropyl)-8-(pyridin-3-yl)-6-(5-(trifluoromethyl)pyridin-2-yl)pyrido[3,4-d]pyrimidin-4(3H)-one], the CLint scaled at 1 μM in series [2] was below 20 mL/min/kg.
Regarding `C[C@@H](O)Cn1cnc2c(-c3cccnc3)nc(-c3ccc(C(F)(F)F)cn3)cc2c1=O` [Compound 144, (R)-3-(2-hydroxypropyl)-8-(pyridin-3-yl)-6-(5-(trifluoromethyl)pyridin-2-yl)pyrido[3,4-d]pyrimidin-4(3H)-one], the CLint scaled at 1 μM in series [2] was below 20 mL/min/kg.
Consider `O=c1c2cc(-c3ccc(C(F)(F)F)cn3)nc(-c3cccnc3)c2ncn1[C@H]1COC[C@H]1O` [Compound 145, 3-((3S,4S)-4-hydroxytetrahydrofuran-3-yl)-8-(pyridin-3-yl)-6-(5-(trifluoromethyl)pyridin-2-yl)pyrido[3,4-d]pyrimidin-4(3H)-one], for which, in series [2], the CLint scaled at 1 μM was below 20 mL/min/kg.
`Cn1cc(-c2nc(-c3ccc(C(F)(F)F)cn3)cc3c(=O)n([C@H]4COC[C@H]4O)cnc23)cn1` [Compound 151, 3-((3S,4S)-4-hydroxytetrahydrofuran-3-yl)-8-(1-methyl-1H-pyrazol-4-yl)-6-(5-(trifluoromethyl)pyridin-2-yl)pyrido[3,4-d]pyrimidin-4(3H)-one]: in series [2], the CLint scaled at 1 μM was below 20 mL/min/kg.
In the case of `O=c1c2cc(-c3ccc(Cl)cc3)nc(-c3cccnc3)c2ncn1[C@@H]1COC[C@H]1O` [Compound 152, 6-(4-chlorophenyl)-3-((3R,4S)-4-hydroxytetrahydrofuran-3-yl)-8-(pyridin-3-yl)pyrido[3,4-d]pyrimidin-4(3H)-one], in series [2], the CLint scaled at 1 μM is 20 to 50 mL/min/kg.
Same read-out and setting: the value for `O=c1c2cc(-c3ccc(C(F)(F)F)cn3)nc(-c3cccnc3)c2ncn1C[C@@H](O)C(F)(F)F` [Compound 154, (R)-8-(pyridin-3-yl)-3-(3,3,3-trifluoro-2-hydroxypropyl)-6-(5-(trifluoromethyl)pyridin-2-yl)pyrido[3,4-d]pyrimidin-4(3H)-one] was below 20 mL/min/kg; that for `CNC(=O)[C@H](C)n1cnc2c(-c3cccnc3)nc(-c3ccc(C(F)(F)F)nc3)cc2c1=O` [Compound 156, (S)—N-methyl-2-(4-oxo-8-(pyridin-3-yl)-6-(6-(trifluoromethyl)pyridin-3-yl)pyrido[3,4-d]pyrimidin-3(4H)-yl)propanamide] was below 20 mL/min/kg.
On the same count and under the same terms, with `C[C@@H](CO)n1cnc2c(-n3ccnc3)nc(-c3ccc(C(F)(F)F)cn3)cc2c1=O` [Compound 162, (S)-3-(1-hydroxypropan-2-yl)-8-(1H-imidazol-1-yl)-6-(5-(trifluoromethyl)pyridin-2-yl)pyrido[3,4-d]pyrimidin-4(3H)-one] the figure was below 20 mL/min/kg.
As to `C[C@@H](CO)n1cnc2c(-n3ccnc3)nc(-c3ccc(C(F)(F)F)nc3)cc2c1=O` [Compound 163, (S)-3-(1-hydroxypropan-2-yl)-8-(1H-imidazol-1-yl)-6-(6-(trifluoromethyl)pyridin-3-yl)pyrido[3,4-d]pyrimidin-4(3H)-one], the CLint scaled at 1 μM in series [2] is below 20 mL/min/kg.
For the molecule `C[C@@H](CO)n1cnc2c(N3CCCCC3)nc(-c3ccc(Cl)cc3)cc2c1=O` [Compound 177, (S)-6-(4-chlorophenyl)-3-(1-hydroxypropan-2-yl)-8-(piperidin-1-yl)pyrido[3,4-d]pyrimidin-4(3H)-one], in series [2], the CLint scaled at 1 μM lay in the range of 20 to 50 mL/min/kg.
With `Cc1nc(-c2cc3c(=O)n([C@@H](C)CO)cnc3c(-c3cccnc3)n2)cs1` [Compound 183, (S)-3-(1-hydroxypropan-2-yl)-6-(2-methylthiazol-4-yl)-8-(pyridin-3-yl)pyrido[3,4-d]pyrimidin-4(3H)-one], in series [2], the CLint scaled at 1 μM was below 20 mL/min/kg.
